Results published in ChEMBL document CHEMBL1201862, “PubChem BioAssay data set” (2004).
Calls of active or inactive are those of the source.

Columns and labels:
[1] = molecular target: Heat shock protein HSP 90-alpha (Homo sapiens, UniProt P07900); type: functional, organism-based
[2] = molecular target: T1, Endoribonuclease toxin MazF (Escherichia coli K-12, UniProt P0AE70); test: activation of MazEF endoribonuclease cleavage – biochemical, fluorescence, single-stranded RNA substrate, uHTS hits, dose response (AID 588481); type: functional
T1 sequence (P0AE70 whole entry): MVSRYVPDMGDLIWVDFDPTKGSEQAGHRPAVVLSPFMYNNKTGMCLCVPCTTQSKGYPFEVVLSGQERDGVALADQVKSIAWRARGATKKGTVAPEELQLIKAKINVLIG

[3] = molecular target: T1, Endoribonuclease toxin MazF; test: substrate-only fluorescence increase artefacts – biochemical, single-stranded RNase substrate, counter-screen for MazEF activator project, dose response (AID 588502); type: functional
[4] = cells; type: functional
[5] = cells; type: functional, cell-based
[6] = THP-1 cell cytotoxicity, dose response, cytotoxicity control for non-replicating M. tuberculosis project (AID 489025); type: functional
[7] = microbe, parasite or virus in culture; type: functional; conditions: Mycobacterium tuberculosis
[8] = Vero E6 cell cytotoxicity, dose response, cytotoxicity control for non-replicating M. tuberculosis project, secondary assay (AID 492998); type: functional, VeroE6; conditions: Vero C1008
[9] = cells; type: functional, cell-based; remark: listed apart in the source
[10] = molecular target: T2, Long-chain-fatty-acid--AMP ligase FadD28 (Mycobacterium tuberculosis, UniProt P9WQ59); test: Fluorescence polarization aasay to screen for inhibitors that compete for the binding of FadD28 to a bisubstrate Measured in Biochemical System Using Plate Reader - 2147-01_Inhibitor_Dose_CherryPick_Activity.; type: functional, Mycobacterium tuberculosis H37Rv
T2 sequence (P9WQ59 whole entry): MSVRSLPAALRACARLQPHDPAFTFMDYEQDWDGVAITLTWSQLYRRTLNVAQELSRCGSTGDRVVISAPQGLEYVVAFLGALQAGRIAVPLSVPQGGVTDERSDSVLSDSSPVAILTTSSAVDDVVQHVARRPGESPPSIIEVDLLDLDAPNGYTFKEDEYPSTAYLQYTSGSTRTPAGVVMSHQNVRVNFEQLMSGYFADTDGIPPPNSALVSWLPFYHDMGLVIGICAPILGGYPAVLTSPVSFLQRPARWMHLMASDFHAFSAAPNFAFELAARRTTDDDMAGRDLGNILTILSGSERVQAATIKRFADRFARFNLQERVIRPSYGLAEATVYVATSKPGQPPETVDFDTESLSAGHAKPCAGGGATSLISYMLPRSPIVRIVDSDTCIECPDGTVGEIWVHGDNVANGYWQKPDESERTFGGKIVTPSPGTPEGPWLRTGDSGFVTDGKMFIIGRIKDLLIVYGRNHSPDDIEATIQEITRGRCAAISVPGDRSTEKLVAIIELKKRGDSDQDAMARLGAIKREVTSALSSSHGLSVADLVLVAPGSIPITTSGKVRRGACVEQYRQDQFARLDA

[11] = molecular target: Cytochrome P450 3A4 (Homo sapiens, UniProt P08684); conditions: Potency;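 note: confirmatory qHTS run detecting inhibitors and substrates of CYP3A4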
Cytochrome P450 3A4, sequence (P08684 whole entry, the tested form may be a part): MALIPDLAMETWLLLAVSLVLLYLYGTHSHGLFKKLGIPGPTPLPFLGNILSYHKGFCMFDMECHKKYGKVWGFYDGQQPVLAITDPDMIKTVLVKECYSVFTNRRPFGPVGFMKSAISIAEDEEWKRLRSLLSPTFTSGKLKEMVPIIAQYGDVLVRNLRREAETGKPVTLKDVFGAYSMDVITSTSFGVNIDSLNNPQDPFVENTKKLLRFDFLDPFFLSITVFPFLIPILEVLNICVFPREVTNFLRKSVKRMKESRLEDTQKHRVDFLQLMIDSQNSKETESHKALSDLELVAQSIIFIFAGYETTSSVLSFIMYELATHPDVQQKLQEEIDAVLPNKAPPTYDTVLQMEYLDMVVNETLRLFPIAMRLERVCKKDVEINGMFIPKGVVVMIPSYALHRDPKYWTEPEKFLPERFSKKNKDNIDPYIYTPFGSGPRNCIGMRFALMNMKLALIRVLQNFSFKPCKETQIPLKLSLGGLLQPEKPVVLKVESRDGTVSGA

[12] = molecular target: T3, Polyadenylate-binding protein 1 (Homo sapiens, UniProt P11940); test: MLLE domain peptide-binding blockers, IC50 – biochemical, fluorescence polarization, FITC-PAM2 peptide, dose response (AID 602259); type: functional; conditions: read-out: IC50_Mean
T3 sequence (P11940 whole entry, the tested form may be a part): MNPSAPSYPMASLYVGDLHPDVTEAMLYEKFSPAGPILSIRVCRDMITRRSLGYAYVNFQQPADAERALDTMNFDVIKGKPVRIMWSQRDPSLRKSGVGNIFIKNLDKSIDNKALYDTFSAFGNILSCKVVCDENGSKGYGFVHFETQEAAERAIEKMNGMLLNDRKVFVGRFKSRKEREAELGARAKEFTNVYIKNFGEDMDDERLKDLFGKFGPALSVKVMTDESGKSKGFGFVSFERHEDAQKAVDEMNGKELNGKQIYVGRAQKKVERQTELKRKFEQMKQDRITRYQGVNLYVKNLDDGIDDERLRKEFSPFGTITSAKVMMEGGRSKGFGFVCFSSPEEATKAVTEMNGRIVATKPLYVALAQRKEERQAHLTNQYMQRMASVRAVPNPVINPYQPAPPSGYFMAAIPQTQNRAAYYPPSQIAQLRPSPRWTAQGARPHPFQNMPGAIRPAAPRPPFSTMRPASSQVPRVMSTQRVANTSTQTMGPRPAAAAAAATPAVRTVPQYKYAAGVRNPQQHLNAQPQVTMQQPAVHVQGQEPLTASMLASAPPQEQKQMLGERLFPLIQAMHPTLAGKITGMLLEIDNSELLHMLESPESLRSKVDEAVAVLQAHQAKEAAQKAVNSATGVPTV

[13] = molecular target: T3, Polyadenylate-binding protein 1; test: MLLE binding blockers, Cy5 peptide tracer – biochemical, fluorescence polarization, Cy5-PAM2 peptide, secondary, miRNA deadenylation inhibitor project, dose response (AID 602260); type: functional; conditions: read-out: IC50_Mean
[14] = alpha-synuclein stem-loop luciferase translation blockers – H4 neuroglioma cells, luminescence, confirmation (AID 1988); type: functional, cell-based
[15] = luciferase reporter signal suppression in cells – H4 neuroglioma cells, luminescence, dose response (AID 1990); type: functional, cell-based
[16] = Luminescence Cell-Based Dose Response HTS to Identify Inhibitors of 5'UTR Stem-Loop Driven Prion Protein mRNA Translation in H4 Neuroglioblastoma Cells. [Related pubchem assays: 1827 (Project Summary), 1813 (Primary HTS)]; type: functional
[17] = NIH3T3 cell viability loss – ATP luminescence, mouse fibroblasts, counter-screen, dose response (AID 2010); type: functional, cell-based;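 note: cells exposed to compound for about 90 hours before reading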
[18] = Trypanosoma cruzi growth suppression in host cells – NIH3T3 host cells, beta-gal luminescence, confirmation (AID 2044); type: functional, cell-based;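 note: intracellular parasites grown in NIH/3T3 mouse fibroblasts as host cells; luminescent beta-galactosidase reporter signal from transgenic T. cruzi replicating inside host cells; inhibitors lower the luminescence signal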
[19] = HEK-293T viability loss after treatment – luminescence, T-cell screen hits, cytotoxicity control for TCR NF-kB inhibitor project, dose response (AID 489026); type: functional, cell-based;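 note: cells exposed to compound about 14 hours before the viability readout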
[20] = molecular target: T4, Replicative DNA helicase DnaB (Mycobacterium tuberculosis, UniProt P9WMR3); test: DnaB intein splicing inhibitors, dose response, biochemical, cell-free fluorescence (AID 449749); type: functional
T4 sequence (P9WMR3 whole entry): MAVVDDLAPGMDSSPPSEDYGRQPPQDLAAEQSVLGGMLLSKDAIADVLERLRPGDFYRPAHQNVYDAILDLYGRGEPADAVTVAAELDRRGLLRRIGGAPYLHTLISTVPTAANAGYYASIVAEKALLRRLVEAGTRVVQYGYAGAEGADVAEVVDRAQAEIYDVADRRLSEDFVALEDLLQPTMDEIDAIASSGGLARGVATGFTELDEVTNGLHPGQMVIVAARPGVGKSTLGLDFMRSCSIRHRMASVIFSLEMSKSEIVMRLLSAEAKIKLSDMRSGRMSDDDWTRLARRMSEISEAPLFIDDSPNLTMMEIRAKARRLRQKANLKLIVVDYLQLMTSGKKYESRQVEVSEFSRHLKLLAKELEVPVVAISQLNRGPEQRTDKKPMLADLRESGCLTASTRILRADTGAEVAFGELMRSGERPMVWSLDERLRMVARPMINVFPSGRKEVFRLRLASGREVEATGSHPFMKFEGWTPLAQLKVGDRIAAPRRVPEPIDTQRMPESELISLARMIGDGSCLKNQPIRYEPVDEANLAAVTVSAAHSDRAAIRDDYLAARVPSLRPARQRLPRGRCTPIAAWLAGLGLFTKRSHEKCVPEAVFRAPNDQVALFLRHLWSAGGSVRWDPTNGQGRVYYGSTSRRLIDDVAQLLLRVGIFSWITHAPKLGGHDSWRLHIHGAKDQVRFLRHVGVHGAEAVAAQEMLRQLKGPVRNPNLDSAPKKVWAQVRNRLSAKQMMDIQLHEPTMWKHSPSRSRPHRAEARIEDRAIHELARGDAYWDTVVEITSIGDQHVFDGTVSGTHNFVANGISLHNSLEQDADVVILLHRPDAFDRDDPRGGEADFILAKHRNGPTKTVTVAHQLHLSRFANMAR

[21] = molecular target: T5, Protein RecA (Mycobacterium tuberculosis, UniProt P9WHJ3); test: Fluorescence Cell-Free Homogeneous Dose Retest to Identify Inhibitors of RecA-Intein Splicing Activity. [Related pubchem assays (depositor defined):AID2097, AID2223, AID489010, AID492950]; type: functional
T5 sequence (P9WHJ3 whole entry): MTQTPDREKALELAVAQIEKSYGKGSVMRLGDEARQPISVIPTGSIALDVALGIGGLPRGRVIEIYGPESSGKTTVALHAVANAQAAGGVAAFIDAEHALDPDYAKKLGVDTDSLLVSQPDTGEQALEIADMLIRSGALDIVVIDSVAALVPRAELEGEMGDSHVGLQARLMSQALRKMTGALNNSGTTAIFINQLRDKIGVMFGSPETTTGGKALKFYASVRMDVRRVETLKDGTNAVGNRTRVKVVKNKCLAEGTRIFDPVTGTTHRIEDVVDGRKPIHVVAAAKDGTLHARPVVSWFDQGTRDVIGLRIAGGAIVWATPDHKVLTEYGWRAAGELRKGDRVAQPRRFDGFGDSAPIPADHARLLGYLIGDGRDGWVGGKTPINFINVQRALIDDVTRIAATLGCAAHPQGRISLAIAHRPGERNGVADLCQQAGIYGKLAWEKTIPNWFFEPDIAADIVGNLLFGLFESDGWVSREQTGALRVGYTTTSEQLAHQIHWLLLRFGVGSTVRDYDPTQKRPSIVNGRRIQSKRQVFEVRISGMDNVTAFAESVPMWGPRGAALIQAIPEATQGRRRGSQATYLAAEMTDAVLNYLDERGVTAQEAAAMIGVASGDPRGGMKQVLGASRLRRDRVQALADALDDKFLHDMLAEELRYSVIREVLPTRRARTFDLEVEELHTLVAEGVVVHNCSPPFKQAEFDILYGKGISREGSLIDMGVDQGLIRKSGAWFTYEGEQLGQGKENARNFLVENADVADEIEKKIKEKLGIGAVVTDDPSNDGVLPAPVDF

[22] = test system: H9c2; test: cells; type: functional, cell-based; conditions: Rattus norvegicus, H9c2, Myocardium;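 note: confirmatory concentration-response retest of ultra-high-throughput screening hits for modulation of myocardial damage; cell death induced by hydrogen peroxide oxidative stress; compound pretreatment for 60 min then peroxide exposure for 2 h; potency is for protecting the cells against peroxide damage rather than for killing them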
[23] = P. falciparum Dd2 growth inhibitors, dose response, SYBR Green, cherry-picked samples (AID 1159567); type: functional, cell-based

O=c1c(-c2ccccc2)c(-c2ccccc2)oc2cc(O)cc(O)c12
AC50 [1]: 7.78 µM (active)

Cc1sc(NC(=O)COc2cccc(-n3cnnn3)c2)c(C#N)c1C
EC50 [2]: > 99 µM (inactive) | EC50 [3]: > 99 µM (inactive)

Cc1cc(C)nc(Sc2ncnc(N)c2[N+](=O)[O-])n1
IC50 [4]: 11.7 µM (active) | EC50 [5]: > 350 µM (not active) | CC50 [6]: 23.8 µM (active) | CC50 [7]: 26.3 µM (active) | CC50 [8]: 17.8 µM (active) | EC50 [9]: > 350 µM (not active)

COc1ccc(NC(=O)CNc2ccccc2N2CCCC2=O)cc1S(=O)(=O)N1CCOCC1
AC50 [10]: 34.1 µM (active)

COC(=O)c1cccc(C23CC4(C2)[C@H](CN(Cc2ccc(-c5ccccc5)cc2)[C@@H]4c2ccccc2)C3c2ccc(C(F)(F)F)cc2)c1 (stereo not given in full)
AC50 [11]: 20 µM (inconclusive)

COc1ccc2nc3cc(Cl)ccc3c(C#N)c2c1
IC50 [12]: > 66 µM (inactive) | IC50 [13]: > 66 µM (inactive) | EC50 [2]: > 99 µM (inactive) | EC50 [3]: > 99 µM (inactive)

COc1cc(OC)cc(N2C(=O)CC(N3CCC(C(=O)N4CCCCC4)CC3)C2=O)c1 (stereo not given)
AC50 [1]: 8.16 µM (active)

CC1CN(c2ccc([N+](=O)[O-])c(NCCOc3ccc(Cl)cc3)c2)CC(C)N1 (stereo not given)
EC50 [14]: 9.59 µM (active) | EC50 [15]: > 120 µM (not active) | CC50 [7]: 11.7 µM (active) | EC50 [16]: 13.6 µM (active)

CCOC(=O)CSc1nc2cc(C)ccc2cc1C#N
EC50 [2]: > 99 µM (inactive) | EC50 [3]: 26.8 µM (inactive)

Nc1c(C(=O)c2ccc(Cl)cc2)sc2nc3c(cc12)CCC3
EC50 [2]: > 99 µM (inactive) | EC50 [3]: > 99 µM (inactive)

Cc1cccc(NC(=O)c2ccc([N+](=O)[O-])s2)n1
IC50 [4]: 11.8 µM (active) | CC50 [6]: 29.9 µM (active) | EC50 [17]: > 60 µM (not active) | CC50 [8]: 19.1 µM (active) | EC50 [18]: 0.325 µM (active)

CCCCC(CC)COP(=O)(OCC(CC)CCCC)OCC(CC)CCCC (stereo not given)
AC50 [11]: 15.8 µM (inconclusive)

C=CCOC(=O)C(C(C)=O)C(NC(=O)OC)c1ccco1 (stereo not given)
AC50 [11]: 5.01 µM (inconclusive)

COC(=O)[C@@H]1C[C@@H]2CC[C@@H](O)C[C@@H]2N1Cc1ccc(C)s1
AC50 [11]: 25.1 µM (inconclusive)

Nc1ncnc2c1ncn2[C@@H]1O[C@H](CNCc2ccc(OCc3ccccc3)cc2)[C@@H](O)[C@H]1O
AC50 [10]: 64.2 µM (active)

COc1cccc(NC(=O)CN(C)C(=O)c2cc3c(s2)CCCCC3)c1
AC50 [10]: 84 µM (active)

COc1cc(C2c3cc4c(cc3CC3COC(=O)C32)OCO4)cc(OC)c1OC (stereo not given)
IC50 [19]: > 80 µM (inactive)

Cc1ccc2c(c1)C(=O)C(=O)N2Cc1ccc(C(F)(F)F)cc1
AC50 [1]: 7.94 µM (active)

Cc1[nH]n(-c2ccccc2)c(=O)c1C(C[N+](=O)[O-])c1ccccc1Cl (stereo not given)
AC50 [20]: 6.69 µM (active) | CC50 [7]: > 40 µM (active) | EC50 [21]: 5.48 µM (active)

Cc1cccc(-n2[nH]c(C)c(/C=N/c3ccc4[nH]c(O)nc4c3)c2=O)c1
EC50 [2]: 36 µM (inactive) | EC50 [3]: 65.2 µM (inactive) | IC50 [22]: > 79 µM (inactive)

C[C@H](CO)N1C[C@H](C)[C@H](CN(C)Cc2ccc(Oc3ccccc3)cc2)Oc2c(NC(=O)c3nc4ccccc4s3)cccc2C1=O
AC50 [23]: 4.87 µM (active)

COCC(=O)N1CC2(C1)CN(Cc1cc(F)ccc1F)[C@H](CO)c1[nH]c3cc(OC)ccc3c12
AC50 [23]: 13.6 µM (active)

COC(=O)c1c(C)c2c(c(C)c1O)OC(=O)c1c(C)c(Cl)c(O)c(Cl)c1O2 [LEOIDIN]
AC50 [11]: 2.51 µM (inconclusive)
